18 molecules from patent US20240043404A1 (AbbVie Inc., priority 2009, published 2024) can be followed below.

Each structure is given as a SMILES string.

This assay has as its system RS4;11 cells. Put plainly: RS4;11 cell viability assay (CellTiter Glo).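 Also: acute lymphoblastic leukemia line RS4,11, EC50 derived from percentage of viable cells after treatment relative to untreated controls, cell killing taken as a measure of Bcl-2 inhibition.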 The assay is classed as cell-based, human. To be noted: Homo sapiens, RS4-11, 48 h, 50,000 cells per well, 10% human serum, 48 hours; read-out: RS4; 11 EC50 Values. (Cellular ATP, detected with luciferase, serves as a proxy for viable cell number.)
Protocol: The acute lymphoblastic leukemia (ALL) cell line RS4;11 was used as the primary human cell line to assess the cellular activity of Bcl-2 selective agents in vitro and their efficacy in vivo.
Cell cytotoxicity EC50 values were assessed using CellTiter Glo (Promega) according to the manufacturer's recommendations. The EC50 values were determined as a percentage of viable cells following treatment compared to the untreated control cells.
With `COc1ccc(CNc2ccc(S(=O)(=O)NC(=O)c3ccc(N4CCN(CC5=C(c6ccc(Cl)cc6)CC(C)(C)CC5)CC4)cc3Oc3cnc4[nH]ccc4c3)cc2[N+](=O)[O-])cc1` [Example 174, 4-(4-{[2-(4-chlorophenyl)-4,4-dimethylcyclohex-1-en-1-yl]methyl}piperazin-1-yl)-N-({4-[(4-methoxybenzyl)amino]-3-nitrophenyl}sulfonyl)-2-(1H-pyrrolo[2,3-b]pyridin-5-yloxy)benzamide], the EC50 is 126 nM.
Consider `CC1(C)CCC(CN2CCN(c3ccc(C(=O)NS(=O)(=O)c4ccc(NCc5cccc(OC(F)(F)F)c5)c([N+](=O)[O-])c4)c(Oc4cnc5[nH]ccc5c4)c3)CC2)=C(c2ccc(Cl)cc2)C1` [Example 175, 4-(4-{[2-(4-chlorophenyl)-4,4-dimethylcyclohex-1-en-1-yl]methyl}piperazin-1-yl)-N-[(3-nitro-4-{[3-(trifluoromethoxy)benzyl]amino}phenyl)sulfonyl]-2-(1H-pyrrolo[2,3-b]pyridin-5-yloxy)benzamide], for which the EC50 is more than 1000 nM.
Next, `COc1cccc(CNc2ccc(S(=O)(=O)NC(=O)c3ccc(N4CCN(CC5=C(c6ccc(Cl)cc6)CC(C)(C)CC5)CC4)cc3Oc3cnc4[nH]ccc4c3)cc2[N+](=O)[O-])c1` [Example 176, 4-(4-{[2-(4-chlorophenyl)-4,4-dimethylcyclohex-1-en-1-yl]methyl}piperazin-1-yl)-N-({4-[(3-methoxybenzyl)amino]-3-nitrophenyl}sulfonyl)-2-(1H-pyrrolo[2,3-b]pyridin-5-yloxy)benzamide]: 134 nM; `CC1(C)CCC(CN2CCN(c3ccc(C(=O)NS(=O)(=O)c4ccc(NCc5ccc(OC(F)F)cc5)c([N+](=O)[O-])c4)c(Oc4cnc5[nH]ccc5c4)c3)CC2)=C(c2ccc(Cl)cc2)C1` [Example 177, 4-(4-{[2-(4-chlorophenyl)-4,4-dimethylcyclohex-1-en-1-yl]methyl}piperazin-1-yl)-N-[(4-{[4-(difluoromethoxy)benzyl]amino}-3-nitrophenyl)sulfonyl]-2-(1H-pyrrolo[2,3-b]pyridin-5-yloxy)benzamide]: 159 nM.
Next, `CC1(C)CCC(CN2CCN(c3ccc(C(=O)NS(=O)(=O)c4ccc(NC5CCC6(CC5)OCCO6)c([N+](=O)[O-])c4)c(Oc4cnc5[nH]ccc5c4)c3)CC2)=C(c2ccc(Cl)cc2)C1` [Example 178, 4-(4-{[2-(4-chlorophenyl)-4,4-dimethylcyclohex-1-en-1-yl]methyl}piperazin-1-yl)-N-{[4-(1,4-dioxaspiro[4.5]dec-8-ylamino)-3-nitrophenyl]sulfonyl}-2-(1H-pyrrolo[2,3-b]pyridin-5-yloxy)benzamide]: 202 nM; `CC(=O)N[C@H]1CC[C@H](Nc2ccc(S(=O)(=O)NC(=O)c3ccc(N4CCN(CC5=C(c6ccc(Cl)cc6)CC(C)(C)CC5)CC4)cc3Oc3cnc4[nH]ccc4c3)cc2[N+](=O)[O-])CC1` [Example 179, Trans-N-[(4-{[4-(acetylamino)cyclohexyl]amino}-3-nitrophenyl)sulfonyl]-4-(4-{[2-(4-chlorophenyl)-4,4-dimethylcyclohex-1-en-1-yl]methyl}piperazin-1-yl)-2-(1H-pyrrolo[2,3-b]pyridin-5-yloxy)benzamide]: 42.7 nM; `CC1(C)CCC(CN2CCN(c3ccc(C(=O)NS(=O)(=O)c4ccc(N[C@@H]5CCN(CC(F)F)C5)c([N+](=O)[O-])c4)c(Oc4cnc5[nH]ccc5c4)c3)CC2)=C(c2ccc(Cl)cc2)C1` [Example 180, 4-(4-{[2-(4-chlorophenyl)-4,4-dimethylcyclohex-1-en-1-yl]methyl}piperazin-1-yl)-N-[(4-{[(3R)-1-(2,2-difluoroethyl)pyrrolidin-3-yl]amino}-3-nitrophenyl)sulfonyl]-2-(1H-pyrrolo[2,3-b]pyridin-5-yloxy)benzamide]: 11.8 nM.
Next, `CC1(C)CCC(CN2CCN(c3ccc(C(=O)NS(=O)(=O)c4ccc(N[C@H]5CCN(CCF)C5)c([N+](=O)[O-])c4)c(Oc4cnc5[nH]ccc5c4)c3)CC2)=C(c2ccc(Cl)cc2)C1` [Example 181, 4-(4-{[2-(4-chlorophenyl)-4,4-dimethylcyclohex-1-en-1-yl]methyl}piperazin-1-yl)-N-[(4-{[(3S)-1-(2-fluoroethyl)pyrrolidin-3-yl]amino}-3-nitrophenyl)sulfonyl]-2-(1H-pyrrolo[2,3-b]pyridin-5-yloxy)benzamide]: 106 nM; `CC1(C)CCC(CN2CCN(c3ccc(C(=O)NS(=O)(=O)c4ccc(N[C@H]5CCN(CC(F)F)C5)c([N+](=O)[O-])c4)c(Oc4cnc5[nH]ccc5c4)c3)CC2)=C(c2ccc(Cl)cc2)C1` [Example 182, 4-(4-{[2-(4-chlorophenyl)-4,4-dimethylcyclohex-1-en-1-yl]methyl}piperazin-1-yl)-N-[(4-{[(3S)-1-(2,2-difluoroethyl)pyrrolidin-3-yl]amino}-3-nitrophenyl)sulfonyl]-2-(1H-pyrrolo[2,3-b]pyridin-5-yloxy)benzamide]: 123 nM; `CC1(C)CCC(CN2CCN(c3ccc(C(=O)NS(=O)(=O)c4ccc(NCc5ccc(O)cc5)c([N+](=O)[O-])c4)c(Oc4cnc5[nH]ccc5c4)c3)CC2)=C(c2ccc(Cl)cc2)C1` [Example 185, 4-(4-{[2-(4-chlorophenyl)-4,4-dimethylcyclohex-1-en-1-yl]methyl}piperazin-1-yl)-N-({4-[(4-hydroxybenzyl)amino]-3-nitrophenyl}sulfonyl)-2-(1H-pyrrolo[2,3-b]pyridin-5-yloxy)benzamide]: 27.5 nM.
`CC1(C)CCC(CN2CCN(c3ccc(C(=O)NS(=O)(=O)c4ccc(NCc5cccc(O)c5)c([N+](=O)[O-])c4)c(Oc4cnc5[nH]ccc5c4)c3)CC2)=C(c2ccc(Cl)cc2)C1` [Example 186, 4-(4-{[2-(4-chlorophenyl)-4,4-dimethylcyclohex-1-en-1-yl]methyl}piperazin-1-yl)-N-({4-[(3-hydroxybenzyl)amino]-3-nitrophenyl}sulfonyl)-2-(1H-pyrrolo[2,3-b]pyridin-5-yloxy)benzamide]: the EC50 worked out at 64.4 nM.
Next, `CC1(C)CCC(CN2CCN(c3ccc(C(=O)NS(=O)(=O)c4ccc(NCc5cccc(OC(F)F)c5)c([N+](=O)[O-])c4)c(Oc4cnc5[nH]ccc5c4)c3)CC2)=C(c2ccc(Cl)cc2)C1` [Example 187, 4-(4-{[2-(4-chlorophenyl)-4,4-dimethylcyclohex-1-en-1-yl]methyl}piperazin-1-yl)-N-[(4-{[3-(difluoromethoxy)benzyl]amino}-3-nitrophenyl)sulfonyl]-2-(1H-pyrrolo[2,3-b]pyridin-5-yloxy)benzamide]: 215 nM; `CC1(C)CCC(CN2CCN(c3ccc(C(=O)NS(=O)(=O)c4ccc(N[C@H]5CC[C@H](NS(C)(=O)=O)CC5)c([N+](=O)[O-])c4)c(Oc4cnc5[nH]ccc5c4)c3)CC2)=C(c2ccc(Cl)cc2)C1` [Example 189, Trans-4-(4-{[2-(4-chlorophenyl)-4,4-dimethylcyclohex-1-en-1-yl]methyl}piperazin-1-yl)-N-{[4-({4-[(methylsulfonyl)amino]cyclohexyl}amino)-3-nitrophenyl]sulfonyl}-2-(1H-pyrrolo[2,3-b]pyridin-5-yloxy)benzamide]: 144 nM.
As for `CC1(C)CCC(CN2CCN(c3ccc(C(=O)NS(=O)(=O)c4ccc(NC5CCN(C6CC6)CC5)c(S(=O)(=O)C(F)(F)F)c4)c(Oc4cnc5[nH]ccc5c4)c3)CC2)=C(c2ccc(Cl)cc2)C1` [Example 190, 4-(4-{[2-(4-chlorophenyl)-4,4-dimethylcyclohex-1-en-1-yl]methyl}piperazin-1-yl)-N-({4-[(1-cyclopropylpiperidin-4-yl)amino]-3-[(trifluoromethyl)sulfonyl]phenyl}sulfonyl)-2-(1H-pyrrolo[2,3-b]pyridin-5-yloxy)benzamide], the EC50 came to 551 nM.
Next, `CC1(C)CCC(CN2CCN(c3ccc(C(=O)NS(=O)(=O)c4ccc(OCC5(F)CCN(C6CCOCC6)CC5)c([N+](=O)[O-])c4)c(Oc4cnc5[nH]ccc5c4)c3)CC2)=C(c2ccc(Cl)cc2)C1` [Example 192, 4-(4-{[2-(4-chlorophenyl)-4,4-dimethylcyclohex-1-en-1-yl]methyl}piperazin-1-yl)-N-({4-[(4-fluoro-1-tetrahydro-2H-pyran-4-ylpiperidin-4-yl)methoxy]-3-nitrophenyl}sulfonyl)-2-(1H-pyrrolo[2,3-b]pyridin-5-yloxy)benzamide]: 2.41 nM; `CC1(C)CCC(CN2CCN(c3ccc(C(=O)NS(=O)(=O)c4ccc(OCC5(F)CCN(C6CCOC6)CC5)c([N+](=O)[O-])c4)c(Oc4cnc5[nH]ccc5c4)c3)CC2)=C(c2ccc(Cl)cc2)C1` (stereo not drawn) [Example 193, 4-(4-{[2-(4-chlorophenyl)-4,4-dimethylcyclohex-1-en-1-yl]methyl}piperazin-1-yl)-N-({4-[(4-fluoro-1-tetrahydrofuran-3-ylpiperidin-4-yl)methoxy]-3-nitrophenyl}sulfonyl)-2-(1H-pyrrolo[2,3-b]pyridin-5-yloxy)benzamide]: 0.76 nM; `CC1(C)CCC(CN2CCN(c3ccc(C(=O)NS(=O)(=O)c4ccc(OCC5(F)CCN(S(C)(=O)=O)CC5)c([N+](=O)[O-])c4)c(Oc4cnc5[nH]ccc5c4)c3)CC2)=C(c2ccc(Cl)cc2)C1` [Example 194, 4-(4-{[2-(4-chlorophenyl)-4,4-dimethylcyclohex-1-en-1-yl]methyl}piperazin-1-yl)-N-[(4-{[4-fluoro-1-(methylsulfonyl)piperidin-4-yl]methoxy}-3-nitrophenyl)sulfonyl]-2-(1H-pyrrolo[2,3-b]pyridin-5-yloxy)benzamide]: 8.19 nM.
Next, `CC1(C)CCC(CN2CCN(c3ccc(C(=O)NS(=O)(=O)c4ccc(NC[C@H]5CCN(C6COC6)C5)c([N+](=O)[O-])c4)c(Oc4cnc5[nH]ccc5c4)c3)CC2)=C(c2ccc(Cl)cc2)C1` [Example 195, 4-(4-{[2-(4-chlorophenyl)-4,4-dimethylcyclohex-1-en-1-yl]methyl}piperazin-1-yl)-N-{[3-nitro-4-({[(3R)-1-oxetan-3-ylpyrrolidin-3-yl]methyl}amino)phenyl]sulfonyl}-2-(1H-pyrrolo[2,3-b]pyridin-5-yloxy)benzamide]: 2.07 nM.
